{"source": "paper PMC8073907", "about": "“Peptide targeting of lysophosphatidylinositol-sensing GPR55 for osteoclastogenesis tuning” (Cell Communication and Signaling : CCS, 2021)", "key": {"[1]": {"test_system": "GPR55-silenced HeLa cells", "assay": "LPI-induced ERK1/2 and p38 phosphorylation in shGPR55-HeLa clones (Western blot)", "format": "cell-based, human", "description": "For stable interference of GPR55, HeLa cells were plated at 1.5 × 10^5 cells/well in six-well plates in growth medium without antibiotics, and 24 h later, the cells were transfected with 1.7 µg/well OmicsLink short hairpin (sh)RNA expression clone CSHCTR001-CU6 (shCTRL) or clone HSH022476-3-CU6 (shGPR55) from GeneCopoeia (Rockville, MD, USA), using Lipofectamine 2000, according the manufacturer instructions. Forty-eight hours after transfection, HeLa clones stably expressing shRNAs were selected in growth medium containing 0.3 µg/mL puromycin. The efficiency of interference was monitored by real-time PCR using the primers listed in the Additional file 1: Table S1. HPRT1 was followed as a housekeeping gene.\nTwenty-four hours after transfection (HEK293T, HeLa cells or clones) or 72 h after interference (RAW264.7 cells), the cells were washed twice with HBSS^++, serum deprived (HEK293T cells for 4 h in DMEM; HeLa cells and clones for 2 h in MEM plus 2 mM glutamine and 25 mM HEPES; RAW264.7 cells for 2 h in DMEM), washed once again with HBSS^++, incubated in stimulation buffer (HBSS^++ with 10 mM HEPES, 0.4% faf-BSA for HEK293T cells; HBSS^++ with 25 mM HEPES and 0.01% faf-BSA for HeLa cells, clones, and RAW264.7 cells) in the absence or presence of stimuli, at 37 °C for the indicated times. Incubations were terminated by washing the cells twice with cold HBSS^++, and the analyses were performed as reported below.\nCell lysates were obtained by scraping the cells into phospho-lysis buffer: 50 mM Tris–HCl, pH 7.5, 100 mM NaCl, 5 mM EDTA, 1% Triton X-100, 50 mM NaF, 40 mM β-glycerophosphate, 200 µM sodium orthovanadate, plus protease and phosphatase inhibitors (Roche). […]\nProtein lysates were subjected to SDS-PAGE, and after electrophoresis, the proteins were transferred to a nitrocellulose membrane (PerkinElmer Life Science, Boston, MA, USA). […] The membranes were then washed twice with T-TBS and once with TBS for 5 min, and the signals were detected by ECL (Amersham Pharmacia, Piscataway, NJ, USA). […]"}, "[2]": {"test_system": "endogenous GPR55 in RAW264.7 cells", "assay": "Intracellular Ca2+ assay in siRNA-interfered RAW264.7 cells", "format": "cell-based, murine", "conditions": "si-NT cells, 72 h of interference; 10 µM 16:0 LPI, within the first minute", "description": "For transient interference of Gpr55, RAW264.7 cells were plated at 6 × 10^5 cells/well in six-well plates in growth medium without antibiotics. Twenty-four hours later, the cells were transfected with 250 pmol/well non-targeting small-interfering (si)RNAs (si-NT; siGENOME siRNA Pool #2; D-001206-14; Dharmacon, Chicago, IL, USA) or Gpr55-specific siRNAs (si-GPR55; siGENOME mouse GPR55 SMART pool; M-043590-01; Dharmacon) using Lipofectamine LTX and Plus Reagent, according to the manufacturer instructions. Twenty-four hours later, the cells were plated for the different assays or for RNA extraction. The efficiency of interference was monitored by real-time PCR after 72 h of interference, using the primers listed in the Additional file 1: Table S1. β2-microglobulin was followed as a housekeeping gene.\nAfter 48 h of siRNA treatments, the RAW264.7 cells were detached with 600 μM EDTA in PBS, and plated at a density of 8 × 10^4 cells/well in 96-well plates. […] All the subsequent incubation steps were performed at 37 °C within the Fluoroskan Ascent FL (Thermo Fisher Scientific, Waltham, MA USA) and the fluorescence recorded with an Ex 485/ Em 520 every 3 s. The baseline fluorescence was monitored for 5 min, then 50 μL assay buffer (0.01% faf-BSA, 20 mM HEPES in HBSS^++) was added without or with 10 μM 16:0 LPI, and fluorescence was recorded for a further 5 min. […]"}}, "data": [{"substance": "lysophosphatidylinositol [LPI]", "values": [{"measurement": "LPI response of empty vector (pcDNA3.1) transfected clones", "setting": "[1]; 10 µM 18:0 LPI", "value": "did not respond to LPI addition"}, {"measurement": "ERK1/2 and p38 activation", "setting": "[1]; 10 µM soybean LPI, or 1 µM ionomycin 5 min", "value": "did not show any ERK1/2 and p38 activation"}, {"measurement": "mean increase of intracellular Ca2+ over basal levels", "setting": "[2]", "value": "~ 40 nM"}]}]}
